Data on 2 molecules can be found in publication PMC4645160, “Targeting kinases with anilinopyrimidines: discovery of N-phenyl-N’-[4-(pyrimidin-4-ylamino)phenyl]urea derivatives as selective inhibitors of class III receptor tyrosine kinase subfamily” (Scientific Reports, 2015).

The subject of one test is HEK293 cells. Description: MTT cytotoxicity assay, non-tumor HEK293 cells. It counts as cell-based, human. As to conditions: for IC50: Homo sapiens, HEK293, MTT test, 72 h, non-tumor cells, read-out: HEK293 IC50 (μM) ± SD. The method, then: F. Zunino (Division of Experimental Oncology B, Istituto Nazionale dei Tumori, Milan, Italy).
The growth inhibitory effect towards human cell lines was evaluated by means of MTT (tetrazolium salt reduction) assay. […] Triplicate cultures were established for each treatment.

The test system of a further test is panel of 48 kinases. Nature of the test: KinomeScan primary screening (POC) at 10 μM. The test is classed as binding, human. As to conditions: POC values. The text has this:
Synthesized compounds were screened against a panel of 48 kinases selected within the ScanEDGE subset of DiscoverX (http://www.discoverx.com/services/drug-discovery-development-services/kinase-profiling/kinomescan/scanedge). The ScanEDGE includes 97 kinases and is an economical approach to assess compounds selectivity throughout the human kinome. All the wt-TKs along with some relevant mutants of Abl1 (T315I) and of EGFR (L858R and L858R/T790M) were chosen. The remaining 18 targets (3 Tyrosine Kinases-Like, TKLs; 15 Serine-Threonine Kinases, STKs) were selected among the remaining kinases in the ScanEDGE subset on the basis of their well established role in cancer (see Fig. S2 for a graphical representation of the selected kinases with reference to the kinome tree. Some references highlighting the role of each kinase in cancer are also reported in Table S3).
The compounds were evaluated using the KinomeScan™ platform (http://www.discoverx.com/services/drug-discovery-development-services/kinase-profiling/kinomescan), that measures the ability of the test compound to disrupt the complex between a high affinity ATP-mimic probe immobilized on a solid support and the kinase of interest. The KinomeScan is a very helpful technology for the fast and reliable screening of a number of compounds against a wide and customizable panel of kinases. Besides, it is not based on the use of hazardous radioactive ^32P-ATP and has a very low rate of false positive (<1%)[44]. The screening platform outputs a “Percent of Control” (POC) value, statistically correlated to the dissociation constant (Kd) value (http://www.discoverx.com/tools-resources/leadhunter-study-reports-data-analysis), for each pair of kinase/ligand. The POC is calculated as reported in equation (1):
Where: test compound signal = amount of kinase still binding the probe after treatment with test compound; negative control signal = amount of kinase still binding the probe after treatment with DMSO (100% control); positive control signal = amount of kinase still binding the probe after treatment with control compound (0% control).
The compounds were tested at high concentration (10 μM), in order to highlight not only the main target but also the off-targets. The results of the preliminary screening are reported as heat map (Fig. 4; see also Table S4 for all the measured values), in which the compounds are grouped on the basis of the 6 or 5 substituent at the pyrimidine ring.

In another test the test system is 2008 cells. Description: MTT cytotoxicity assay, 2008 ovarian cancer cells. The test is classed as cell-based. The note with it: Homo sapiens; MTT test, 72 h; read-out: 2008 IC50 (μM) ± SD. The method, then:
(§1) The cytotoxic profile of 19 and 27 was assessed on a wider panel of human tumor cell lines including also examples of breast (MCF-7), cervical (A431), colorectal (HCT-15), and ovarian (2008) cancers as well as melanoma (A375), besides lung (A549) and pancreatic (BxPC3) cancer cells. IC50 values, calculated from the dose-survival curves obtained after 72 h of drug treatment from the MTT test, are reported in Table 2. […] Both compounds were endowed with a cytotoxic potency higher than that of SU, eliciting IC50 values in the low micromolar range.
(§2) All compounds, except derivative 27, were dissolved in DMSO just before the experiment, and a calculated amount of drug solution was added to the cell growth medium to a final solvent concentration of 0.5%, which had no discernible effect on cell killing. Compound 27 was dissolved in a 0.9% NaCl solution just before the experiment.
(§3) Human lung (A549), breast (MCF-7), pancreas (BxPC3), and colon (LoVo) carcinoma cell lines along with melanoma (A375) were obtained from American Type Culture Collection (ATCC, Rockville, MD). Human non-tumor embryonic kidney HEK293 cells were obtained from European Collection of Cell Cultures (ECACC, Salisbury, UK). Human cervical carcinoma A431cells were kindly provided by Prof. F. Zunino (Division of Experimental Oncology B, Istituto Nazionale dei Tumori, Milan, Italy). Human ovarian cancer 2008 cells were kindly provided by Prof. G. Marverti (Dept. of Biomedical Science of Modena University, Italy). […]
(§4) The growth inhibitory effect towards human cell lines was evaluated by means of MTT (tetrazolium salt reduction) assay. […] After overnight incubation, the inhibition of cell growth induced by the tested complexes was detected by measuring the absorbance of each well at 570 nm using a Bio-Rad 680 microplate reader (Bio-Rad, Hercules, CA). Mean absorbance for each drug dose was expressed as a percentage of the control untreated well absorbance and plotted vs drug concentration.

In the next test the test system is A375 cells. Nature of the test: MTT cytotoxicity assay, A375 melanoma cells. The test is classed as cell-based. The note with it: Homo sapiens, A-375; MTT test, 72 h; read-out: A375 IC50 (μM) ± SD. On the procedure: as §1, §2, §3, §4

As for `O=C(Nc1ccccc1)Nc1ccc(Nc2cc(-c3ccccc3)ncn2)cc1` [Compound 19], the IC50 in the test on HEK293 cells amounted to 7.33 ± 1.75 µM; in the test on 2008 cells it was 1.98 ± 0.75 µM; with A375 cells, 6.41 ± 2.02 µM. For the same molecule, the “Selectivity Index” value in the test with HEK293 cells (IC50 toward non cancerous HEK293 cells divided by the average IC50 for the malignant cells (A549, BxPC3)) is listed as 3.84. In addition, the “Selectivity index, folds higher than that calculated with SU” value in the test on HEK293 cells (SI of compound versus SI of SU) is reported as “approximately 1.5”. For the same molecule, the “Selectivity profile (kinases targeted) in primary screening” value in the test with panel of 48 kinases is “class III RTK”.
For the molecule `O=C(CN1CCOCC1)Nc1cccc(-c2cc(Nc3ccc(NC(=O)Nc4ccccc4)cc3)ncn2)c1` [Compound 27], the half-inhibitory concentration (IC50) came out at 10 µM in the test on HEK293 cells, 1.82 ± 0.73 µM with 2008 cells and 5.56 ± 1.39 µM in the test with A375 cells.
